Laboratory results reported in patent publication US11534457B2, “Use of dextran sulfate” (priority 2017, dated 2022).

Tests used:
[1] = system: CASM3C system [coronary artery smooth muscle cells+(IL-1β, TNFα and IFNγ)]; assay: BioMAP CASM3C system; assay type: cell-based, Human
Excerpt: In this study LMW-DS was characterized by profiling in the BioMAP® Diversity PLUS panel. The BioMAP® panel consists of human primary cell-based systems designed to model different aspects of the human body in an in vitro format. The 12 systems in the BioMAP® Diversity PLUS panel (Table 32) allow test agent characterization in an unbiased way across a broad set of systems modeling various human disease states. The BioMA®P systems are constructed with one or more primary cell types from healthy human donors, with stimuli, such as cytokines or growth factors, added to capture relevant signaling networks that naturally occur in human tissue or pathological conditions. […]
Systems are derived from either single cell types or co-culture systems. […] Test agents prepared in either DMSO (small molecules; final concentration 0.1%) or PBS (biologics) are added at the indicated concentrations 1-hr before stimulation, and remain in culture for 24-hrs or as otherwise indicated (48-hrs, MyoF system; 72-hrs, BT system (soluble readouts); 168-hrs, BT system (secreted IgG)). […] Soluble factors from supernatants are quantified using either HTRF® detection, bead-based multiplex immunoassay or capture ELISA. Overt adverse effects of test agents on cell proliferation and viability (cytotoxicity) are detected by sulforhodamine B (SRB) staining, for adherent cells, and alamarBlue® reduction for cells in suspension. […]

human motor neurons = assay: PI staining (DNA content, cell cycle, cell numbers, apoptotic fraction), Acumen cytometry; assay type: cell-based; conditions: 0.01 and 0.1 mg/ml
Experimental: The study aims were to evaluate the effect of LMW-DS on cell survival and expression of differentiation proteins in three cell types, cerebral cortical neurons, motor neurons and Schwann cells, using two concentrations 0.01 and 0.1 mg/ml of LMW-DS.
Neurons were cultured as 40,000 cells per well and Schwann cells 3,000 cells per. Cells were treated after 24 hours. The number of cells per well depended on the growth phenotype, proliferative capacity, etc.
NeuroBlast was pre-warmed to 37° C. Cells were thawed in a 37° C. water bath for no longer than 2 min. 1 ml of media was gently added drop-wise. Cells were resuspended and transferred to a 15 ml tube containing 9 ml of medium. Cells were centrifuged at 200 relative centrifugal force (RCF) for 5 min. Pellet was resuspended in 5 ml of medium and cells were counted with the Cellometer. 40,000 cells per well were seeded in previously coated 96-well plates. Cells were incubated at 37° C. with 5% CO2. Cells were allowed to settle for 24 hours before drug treatment. After 24 hours NeuroBlast medium was replaced with MotorBlast medium (Lonzo).
LMW-DS was prepared in the culture media of choice for each cell line and added to the respective wells in the doses 0.01 and 0.1 mg/ml. For cell survival assays cells were analyzed after 24 and 48 hours in eight identical wells/dose/time point. Differentiation and protein expression assay was analyzed after 48 hours, also in octuplicates.
Cells were fixated in the wells. Propidium iodine was used for viability assay. For immunohistochemical analysis, neurons were stained with βIII-tubulin, which is a tubulin specific for neurons. Schwann cells were stained for Myelin Basic Protein (MBP). For the negative controls PBST (0.1% Triton-X-100 in PBS) was applied instead of primary antibodies.
The Acumen cytometer allows the direct cytometric analysis of attached cells without prior detachment. […] The protein content of the cells can also be directly measured and expressed as either ‘total protein content’ or ‘mean protein content’.

low molecular weight dextran sulfate [LMW-DS]
Decreased biomarker activity ([1]; CASM3C system): VCAM-1, MIG
key inflammation biomarkers including MIG, VCAM, IP-10 and ITAC ([1]; all tested concentrations): decreased over all tested concentrations
cell loss in cultures (human motor neurons): major cell loss
number of cells in the G2/M phase (PI content) (human motor neurons): appeared to increase the number of cells in the G2/M phase
proliferation within a population of very small cells (human motor neurons): small increase in proliferation
